Experimental data published in ChEMBL document CHEMBL3045455, “Design, synthesis and evaluation of novel indomethacinflavonoid mutual prodrugs as safer NSAIDs” (Med Chem Res, 2011).

What was measured:
Rattus norvegicus [1] = assay: Anti-inflammatory activity in carrageenan-induced paw edema Rattus norvegicus Sprague-Dawley (rat) model assessed as increase in paw volume at 20.52 mg/kg, po measured after 2 hr; type: functional
Mus musculus [2] = assay: Analgesic activity in Mus musculus LACCA (mouse) assessed as inhibition of acetic acid-induced writhing at 17.49 mg/kg, po measured during 20 min period beginning 3 min after acetic acid challenge
Rattus norvegicus [3] = assay: Anti-inflammatory activity in carrageenan-induced paw edema Rattus norvegicus Sprague-Dawley (rat) model assessed as increase in paw volume at 20.52 mg/kg, po measured after 4 hr; type: functional
Rattus norvegicus [4] = assay: Gastrointestinal toxicity in Rattus norvegicus Sprague-Dawley (rat) assessed as ulcer index at 83.98 mg/kg, po measured after 8 hr (reference value: 0.2 +/- 0.06); type: organism-based; set-up: dose 83.98 mg/kg, route oral; conditions: in vivo
Rattus norvegicus [5] = assay: Gastrointestinal toxicity in Rattus norvegicus Sprague-Dawley (rat) assessed as ulcer index at 82 mg/kg, po measured after 8 hr (reference value: 0.2 +/- 0.06); type: organism-based; set-up: dose 82 mg/kg, route oral; conditions: in vivo
Rattus norvegicus [6] = assay: Anti-inflammatory activity in carrageenan-induced paw edema Rattus norvegicus Sprague-Dawley (rat) model assessed as increase in paw volume at 23.95 mg/kg, po measured after 2 hr; type: functional
Rattus norvegicus [7] = assay: Anti-inflammatory activity in carrageenan-induced paw edema Rattus norvegicus Sprague-Dawley (rat) model assessed as increase in paw volume at 23.95 mg/kg, po measured after 4 hr; type: functional
Mus musculus [8] = assay: Analgesic activity in Mus musculus LACCA (mouse) assessed as inhibition of acetic acid-induced writhing at 17.1 mg/kg, po measured during 20 min period beginning 3 min after acetic acid challenge
Rattus norvegicus [9] = assay: Anti-inflammatory activity in carrageenan-induced paw edema Rattus norvegicus Sprague-Dawley (rat) model assessed as increase in paw volume at 12 mg/kg, po measured after 4 hr; type: functional
Rattus norvegicus [10] = assay: Gastrointestinal toxicity in Rattus norvegicus Sprague-Dawley (rat) assessed as ulcer index at 48 mg/kg, po measured after 8 hr (reference value: 0.2 +/- 0.06); type: organism-based; set-up: dose 48 mg/kg, route oral; conditions: in vivo
Mus musculus [11] = assay: Analgesic activity in Mus musculus LACCA (mouse) assessed as inhibition of acetic acid-induced writhing at 10 mg/kg, po measured during 20 min period beginning 3 min after acetic acid challenge
Rattus norvegicus [12] = assay: Anti-inflammatory activity in carrageenan-induced paw edema Rattus norvegicus Sprague-Dawley (rat) model assessed as increase in paw volume at 12 mg/kg, po measured after 2 hr; type: functional

COc1ccc2c(c1)c(CC(=O)Oc1cc(O)c3c(c1)O[C@H](c1ccc(OC)c(O)c1)CC3=O)c(C)n2C(=O)c1ccc(Cl)cc1 [INDOMETHACIN-HESPERTIN]
Activity (Rattus norvegicus [1]): 37.78%
inhibition in vivo at 17.49 mg/kg (Mus musculus [2]): 89.4%
Activity (Rattus norvegicus [3]): 38.22%
UI (Rattus norvegicus [4]): 0.54

COc1ccc2c(c1)c(CC(=O)Oc1cc(O)c3c(c1)O[C@H](c1ccc(O)cc1)CC3=O)c(C)n2C(=O)c1ccc(Cl)cc1 [INDOMETHACIN-NARINGENIN]
UI (Rattus norvegicus [5]): 0.62
Activity (Rattus norvegicus [6]): 39.13%
Activity (Rattus norvegicus [7]): 40.46%
inhibition in vivo at 17.1 mg/kg (Mus musculus [8]): 86.7%

COc1ccc2c(c1)c(CC(=O)O)c(C)n2C(=O)c1ccc(Cl)cc1 [INDOMETHACIN]
Activity (Rattus norvegicus [9]): 57.39%
UI (Rattus norvegicus [10]): 5.54
inhibition in vivo at 10 mg/kg (Mus musculus [11]): 74.2%
Activity (Rattus norvegicus [12]): 48.35%
